According to ChEMBL document CHEMBL5346907, “Discovery of a novel oral type Ⅰ CDK8 inhibitor against acute myeloid leukemia” (Eur J Med Chem, 2023):

Experiments:
[1] = target: Proto-oncogene tyrosine-protein kinase receptor Ret (Homo sapiens) (UniProt P07949); assay: Inhibition of RET (unknown origin) at 1 uM preincubated for 10 mins followed by substrate addition measured for 60 to 120 mins by HTRF assay relative to control; conditions: time 70-130 min
HL-60 [2] = assay: Induction of apoptosis in human HL-60 cells assessed as necrotic cells at 5 uM incubated for 48 hrs by annexin V-FITC/PI staining based flow cytometry (reference value: 0.26 %); type: functional
[3] = target: Tyrosine-protein kinase Tec (Homo sapiens) (UniProt P42680); assay: Inhibition of TEC (unknown origin) at 1 uM preincubated for 10 mins followed by substrate addition measured for 60 to 120 mins by HTRF assay relative to control; conditions: time 70-130 min
Sequence of Tyrosine-protein kinase Tec (Homo sapiens) (P42680 whole entry): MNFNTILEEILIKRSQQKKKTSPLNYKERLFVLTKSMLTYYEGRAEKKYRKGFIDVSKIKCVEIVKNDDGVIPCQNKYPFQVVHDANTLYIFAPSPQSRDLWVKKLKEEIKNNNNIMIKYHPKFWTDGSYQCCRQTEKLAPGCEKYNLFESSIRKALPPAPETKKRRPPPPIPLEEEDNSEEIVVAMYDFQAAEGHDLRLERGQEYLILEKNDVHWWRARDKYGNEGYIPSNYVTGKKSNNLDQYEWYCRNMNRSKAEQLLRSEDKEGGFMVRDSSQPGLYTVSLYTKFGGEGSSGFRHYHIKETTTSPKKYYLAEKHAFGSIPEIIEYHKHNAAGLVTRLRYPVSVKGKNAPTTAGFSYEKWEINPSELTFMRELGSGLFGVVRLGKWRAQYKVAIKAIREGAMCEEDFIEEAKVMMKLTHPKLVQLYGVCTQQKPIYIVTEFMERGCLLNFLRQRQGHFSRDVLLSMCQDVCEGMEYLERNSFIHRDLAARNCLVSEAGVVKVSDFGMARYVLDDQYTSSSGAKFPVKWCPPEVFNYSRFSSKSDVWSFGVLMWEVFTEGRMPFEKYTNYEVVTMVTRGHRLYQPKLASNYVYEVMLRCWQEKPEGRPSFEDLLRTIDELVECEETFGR

[4] = target: Tyrosine-protein kinase Yes (Homo sapiens) (UniProt P07947); assay: Inhibition of YES (unknown origin) at 1 uM preincubated for 10 mins followed by substrate addition measured for 60 to 120 mins by HTRF assay relative to control; conditions: time 70-130 min
Sequence of Tyrosine-protein kinase Yes (Homo sapiens) (P07947 2-543 limits assumed): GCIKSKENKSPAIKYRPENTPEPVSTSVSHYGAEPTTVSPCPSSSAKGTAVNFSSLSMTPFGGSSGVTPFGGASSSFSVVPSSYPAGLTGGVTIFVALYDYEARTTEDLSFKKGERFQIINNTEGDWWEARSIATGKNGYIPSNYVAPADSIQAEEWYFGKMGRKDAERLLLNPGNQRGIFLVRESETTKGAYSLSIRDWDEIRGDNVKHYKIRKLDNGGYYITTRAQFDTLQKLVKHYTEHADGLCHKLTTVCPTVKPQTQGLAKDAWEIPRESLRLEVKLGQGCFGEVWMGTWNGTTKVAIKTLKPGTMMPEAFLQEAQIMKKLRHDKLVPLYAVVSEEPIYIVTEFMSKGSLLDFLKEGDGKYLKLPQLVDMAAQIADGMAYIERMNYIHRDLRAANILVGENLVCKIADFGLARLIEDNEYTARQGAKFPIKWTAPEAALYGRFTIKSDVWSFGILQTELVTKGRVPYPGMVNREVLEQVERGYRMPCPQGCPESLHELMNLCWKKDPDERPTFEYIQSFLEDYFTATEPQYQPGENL

MOLM-13 = assay: Antiproliferative activity against human MOLM-13 cells incubated for 48 hrs by CCK8 assay; type: functional
[5] = target: Insulin receptor-related protein (Homo sapiens) (UniProt P14616); assay: Inhibition of IRR (unknown origin) at 1 uM preincubated for 10 mins followed by substrate addition measured for 60 to 120 mins by HTRF assay relative to control; conditions: time 70-130 min
[6] = target: Tyrosine-protein kinase ITK/TSK (Homo sapiens) (UniProt Q08881); assay: Inhibition of ITK (unknown origin) at 1 uM preincubated for 10 mins followed by substrate addition measured for 60 to 120 mins by HTRF assay relative to control; conditions: time 70-130 min
[7] = target: Insulin receptor (Homo sapiens) (UniProt P06213); assay: Inhibition of INSR (unknown origin) at 1 uM preincubated for 10 mins followed by substrate addition measured for 60 to 120 mins by HTRF assay relative to control; conditions: time 70-130 min
Sequence of Insulin receptor (Homo sapiens) (P06213 28-758 limits assumed): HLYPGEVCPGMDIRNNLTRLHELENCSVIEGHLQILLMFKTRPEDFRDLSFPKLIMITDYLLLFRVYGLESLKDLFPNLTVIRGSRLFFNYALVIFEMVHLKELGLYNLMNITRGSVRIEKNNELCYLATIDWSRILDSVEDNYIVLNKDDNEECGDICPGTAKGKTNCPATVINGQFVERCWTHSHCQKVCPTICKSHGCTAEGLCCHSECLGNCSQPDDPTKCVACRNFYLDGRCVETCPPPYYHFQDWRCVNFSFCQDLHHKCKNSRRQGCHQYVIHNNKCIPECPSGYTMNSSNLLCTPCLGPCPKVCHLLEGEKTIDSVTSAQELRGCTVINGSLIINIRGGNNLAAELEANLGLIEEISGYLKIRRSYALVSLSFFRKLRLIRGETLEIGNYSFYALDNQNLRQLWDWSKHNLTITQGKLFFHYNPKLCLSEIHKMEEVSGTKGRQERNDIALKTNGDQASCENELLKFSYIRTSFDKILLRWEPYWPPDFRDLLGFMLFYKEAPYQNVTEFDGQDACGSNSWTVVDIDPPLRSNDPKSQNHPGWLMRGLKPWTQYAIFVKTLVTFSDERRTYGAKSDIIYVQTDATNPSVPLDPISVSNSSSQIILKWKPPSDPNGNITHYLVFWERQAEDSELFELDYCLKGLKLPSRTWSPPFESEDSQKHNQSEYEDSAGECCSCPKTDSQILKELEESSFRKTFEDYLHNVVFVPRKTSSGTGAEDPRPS
Sequence of Insulin receptor (Homo sapiens) (P06213 763-1382 limits assumed): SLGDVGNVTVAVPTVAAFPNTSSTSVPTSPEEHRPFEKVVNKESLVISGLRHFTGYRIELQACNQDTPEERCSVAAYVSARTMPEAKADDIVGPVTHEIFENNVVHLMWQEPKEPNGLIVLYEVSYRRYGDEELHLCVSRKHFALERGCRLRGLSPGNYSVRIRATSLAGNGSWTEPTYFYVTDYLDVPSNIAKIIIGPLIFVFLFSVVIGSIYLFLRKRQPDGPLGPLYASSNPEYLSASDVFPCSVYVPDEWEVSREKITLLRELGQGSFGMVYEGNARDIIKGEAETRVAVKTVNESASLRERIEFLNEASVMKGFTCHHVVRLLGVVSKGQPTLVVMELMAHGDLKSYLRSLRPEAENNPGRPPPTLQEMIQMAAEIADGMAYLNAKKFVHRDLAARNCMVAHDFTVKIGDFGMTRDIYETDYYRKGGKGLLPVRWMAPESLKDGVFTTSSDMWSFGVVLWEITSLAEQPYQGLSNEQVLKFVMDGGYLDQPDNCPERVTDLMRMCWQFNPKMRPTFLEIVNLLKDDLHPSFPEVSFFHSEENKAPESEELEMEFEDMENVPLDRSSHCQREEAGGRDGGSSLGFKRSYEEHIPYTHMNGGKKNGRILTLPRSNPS

HL-60 [8] = assay: Antiproliferative activity against human HL-60 cells incubated for 48 hrs by CCK8 assay; type: functional
HL-60 [9] = assay: Induction of apoptosis in human HL-60 cells assessed as late apoptotic cells at 10 uM incubated for 48 hrs by annexin V-FITC/PI staining based flow cytometry (reference value: 1.07 %); type: functional
[10] = target: Ephrin type-A receptor 2 (Homo sapiens) (UniProt P29317); assay: Inhibition of EPHA2 (unknown origin) at 1 uM preincubated for 10 mins followed by substrate addition measured for 60 to 120 mins by HTRF assay relative to control; conditions: time 70-130 min
[11] = target: Insulin-like growth factor 1 receptor (Homo sapiens) (UniProt P08069); assay: Inhibition of IGF1R (unknown origin) at 1 uM preincubated for 10 mins followed by substrate addition measured for 60 to 120 mins by HTRF assay relative to control; conditions: time 70-130 min
[12] = target: Tyrosine-protein kinase HCK (Homo sapiens) (UniProt P08631); assay: Inhibition of HCK (unknown origin) at 1 uM preincubated for 10 mins followed by substrate addition measured for 60 to 120 mins by HTRF assay relative to control; conditions: time 70-130 min
Sequence of Tyrosine-protein kinase HCK (Homo sapiens) (P08631 2-526 limits assumed): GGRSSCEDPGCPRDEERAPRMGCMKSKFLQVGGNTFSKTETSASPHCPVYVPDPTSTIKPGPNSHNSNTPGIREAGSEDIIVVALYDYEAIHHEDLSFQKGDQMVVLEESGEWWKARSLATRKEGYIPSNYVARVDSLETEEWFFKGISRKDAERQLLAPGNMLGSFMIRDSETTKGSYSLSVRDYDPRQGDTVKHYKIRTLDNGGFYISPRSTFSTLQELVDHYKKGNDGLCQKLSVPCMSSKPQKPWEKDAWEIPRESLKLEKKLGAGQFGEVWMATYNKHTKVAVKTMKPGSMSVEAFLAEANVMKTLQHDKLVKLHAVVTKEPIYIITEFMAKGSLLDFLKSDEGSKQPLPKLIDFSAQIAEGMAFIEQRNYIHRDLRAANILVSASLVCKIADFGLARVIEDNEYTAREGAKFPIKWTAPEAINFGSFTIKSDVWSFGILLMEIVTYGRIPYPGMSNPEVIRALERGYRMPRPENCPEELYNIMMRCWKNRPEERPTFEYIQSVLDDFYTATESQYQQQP

GES1 = assay: Antiproliferative activity against human GES1 cells incubated for 48 hrs by CCK8 assay; type: functional
[13] = target: CDK1/Cyclin E (Homo sapiens) (UniProt P06493+P24864); assay: Inhibition of CDK1/Cyclin E1 (unknown origin) at 1 uM preincubated for 10 mins followed by substrate addition measured for 60 to 120 mins by HTRF assay relative to control; type: protein-complex assay; conditions: time 70-130 min
[14] = target: CDK3/Cyclin E (Homo sapiens) (UniProt P24864+Q00526); assay: Inhibition of CDK3/CyclinE1 (unknown origin) at 1 uM preincubated for 10 mins followed by substrate addition measured for 60 to 120 mins by HTRF assay relative to control; type: protein-complex assay; conditions: time 70-130 min
[15] = target: Tyrosine-protein kinase SYK (Homo sapiens) (UniProt P43405); assay: Inhibition of SYK (unknown origin) at 1 uM preincubated for 10 mins followed by substrate addition measured for 60 to 120 mins by HTRF assay relative to control; conditions: time 70-130 min
[16] = target: Tyrosine-protein kinase SRMS (Homo sapiens) (UniProt Q9H3Y6); assay: Inhibition of SRM (unknown origin) at 1 uM preincubated for 10 mins followed by substrate addition measured for 60 to 120 mins by HTRF assay relative to control; conditions: time 70-130 min
Sequence of Tyrosine-protein kinase SRMS (Homo sapiens) (Q9H3Y6 whole entry, looked up): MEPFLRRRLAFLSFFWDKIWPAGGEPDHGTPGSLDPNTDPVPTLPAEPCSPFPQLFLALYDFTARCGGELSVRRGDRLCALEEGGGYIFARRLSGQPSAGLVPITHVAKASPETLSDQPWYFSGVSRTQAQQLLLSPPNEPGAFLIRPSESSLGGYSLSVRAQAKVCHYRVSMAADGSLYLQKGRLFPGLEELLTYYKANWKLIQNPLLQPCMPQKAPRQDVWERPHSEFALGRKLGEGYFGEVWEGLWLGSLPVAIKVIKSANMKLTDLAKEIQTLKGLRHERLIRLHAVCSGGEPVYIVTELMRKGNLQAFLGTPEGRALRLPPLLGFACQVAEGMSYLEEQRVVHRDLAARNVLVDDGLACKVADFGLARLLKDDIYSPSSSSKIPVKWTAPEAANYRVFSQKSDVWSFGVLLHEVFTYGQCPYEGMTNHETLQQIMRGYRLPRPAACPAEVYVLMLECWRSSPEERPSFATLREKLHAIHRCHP

HCT-116 = assay: Downregulation of STAT5 S726 phosphorylation in human HCT-116 cells incubated for 12 hrs by Western blot analysis; type: functional, cell-based; conditions: dose 1-10 µM
[17] = target: Ephrin type-B receptor 1 (Homo sapiens) (UniProt P54762); assay: Inhibition of EPHB1 (unknown origin) at 1 uM preincubated for 10 mins followed by substrate addition measured for 60 to 120 mins by HTRF assay relative to control; conditions: time 70-130 min
Sequence of Ephrin type-B receptor 1 (Homo sapiens) (P54762 whole entry): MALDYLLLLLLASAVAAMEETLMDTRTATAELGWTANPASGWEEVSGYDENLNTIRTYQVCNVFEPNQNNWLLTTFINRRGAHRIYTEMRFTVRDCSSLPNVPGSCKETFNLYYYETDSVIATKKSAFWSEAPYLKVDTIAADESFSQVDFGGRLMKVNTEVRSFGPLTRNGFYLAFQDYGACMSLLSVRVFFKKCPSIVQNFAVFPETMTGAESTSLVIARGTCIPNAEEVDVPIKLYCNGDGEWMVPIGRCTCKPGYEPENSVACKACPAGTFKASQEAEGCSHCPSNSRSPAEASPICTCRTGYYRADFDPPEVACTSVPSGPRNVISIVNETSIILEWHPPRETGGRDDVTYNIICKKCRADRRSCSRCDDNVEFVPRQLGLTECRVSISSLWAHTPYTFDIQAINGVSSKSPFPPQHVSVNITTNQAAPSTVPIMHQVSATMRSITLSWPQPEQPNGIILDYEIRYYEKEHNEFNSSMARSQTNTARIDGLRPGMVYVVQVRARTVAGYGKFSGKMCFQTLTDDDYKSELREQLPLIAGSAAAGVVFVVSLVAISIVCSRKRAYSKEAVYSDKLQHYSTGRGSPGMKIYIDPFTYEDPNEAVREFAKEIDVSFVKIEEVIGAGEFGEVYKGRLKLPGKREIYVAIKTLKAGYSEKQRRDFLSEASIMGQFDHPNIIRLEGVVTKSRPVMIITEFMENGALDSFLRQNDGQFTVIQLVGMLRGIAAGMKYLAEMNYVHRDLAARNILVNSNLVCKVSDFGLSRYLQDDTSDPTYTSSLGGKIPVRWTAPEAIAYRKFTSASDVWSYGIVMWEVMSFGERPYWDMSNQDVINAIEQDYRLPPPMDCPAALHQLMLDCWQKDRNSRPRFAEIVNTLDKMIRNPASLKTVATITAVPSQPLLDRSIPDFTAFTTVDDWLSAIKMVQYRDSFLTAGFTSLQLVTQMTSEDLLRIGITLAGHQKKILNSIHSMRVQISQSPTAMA

[18] = target: Cyclin-dependent kinase 8 (Homo sapiens, UniProt P49336); assay: Binding affinity to CDK8 in human HCT-116 cells assessed as increase in degradation temperature of protein at 5 uM incubated for 6 hrs followed by heating for 4 mins by CETSA assay (reference value: 55 degreeC); type: cell-based; conditions: time 6.06 hrs
Sequence of Cyclin-dependent kinase 8 (P49336 whole entry): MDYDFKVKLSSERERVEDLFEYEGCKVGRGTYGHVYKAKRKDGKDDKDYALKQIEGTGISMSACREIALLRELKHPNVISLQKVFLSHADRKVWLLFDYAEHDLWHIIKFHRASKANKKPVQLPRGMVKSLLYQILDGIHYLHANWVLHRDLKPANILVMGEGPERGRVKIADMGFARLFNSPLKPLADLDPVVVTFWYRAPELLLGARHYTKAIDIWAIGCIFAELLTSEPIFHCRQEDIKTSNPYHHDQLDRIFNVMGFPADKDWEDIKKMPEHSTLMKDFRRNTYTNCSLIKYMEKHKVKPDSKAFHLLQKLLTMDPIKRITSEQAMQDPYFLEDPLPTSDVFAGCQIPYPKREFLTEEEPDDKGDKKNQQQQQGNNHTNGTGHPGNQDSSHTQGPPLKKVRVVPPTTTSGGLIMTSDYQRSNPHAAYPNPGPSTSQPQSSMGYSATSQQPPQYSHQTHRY

[19] = target: Cyclin-dependent kinase 2/cyclin E1 (Homo sapiens, UniProt P24941); assay: Inhibition of CDK2/Cyclin E1 (unknown origin) preincubated for 10 mins followed by substrate addition measured for 60 to 120 mins by HTRF assay; type: protein-complex assay
[20] = target: Focal adhesion kinase 1 (Homo sapiens) (UniProt Q05397); assay: Inhibition of FAK (unknown origin) at 1 uM preincubated for 10 mins followed by substrate addition measured for 60 to 120 mins by HTRF assay relative to control; conditions: time 70-130 min
[21] = Clearance in Sprague-Dawley rat at 2 mg/kg, iv; type: ADME, organism-based; conditions: in vivo
[22] = target: Ephrin type-A receptor 6 (Homo sapiens) (UniProt Q9UF33); assay: Inhibition of EPHA6 (unknown origin) at 1 uM preincubated for 10 mins followed by substrate addition measured for 60 to 120 mins by HTRF assay relative to control; conditions: time 70-130 min
[23] = target: Tyrosine-protein kinase Lyn (Homo sapiens) (UniProt P07948); assay: Inhibition of LYNb (unknown origin) at 1 uM preincubated for 10 mins followed by substrate addition measured for 60 to 120 mins by HTRF assay relative to control; conditions: time 70-130 min
[24] = target: Ephrin type-A receptor 1 (Homo sapiens) (UniProt P21709); assay: Inhibition of EPHA1 (unknown origin) at 1 uM preincubated for 10 mins followed by substrate addition measured for 60 to 120 mins by HTRF assay relative to control; conditions: time 70-130 min
[25] = target: CDK6/cyclin D1 (Homo sapiens) (UniProt P24385+Q00534); assay: Inhibition of CDK6/Cyclin D1 (unknown origin) at 1 uM preincubated for 10 mins followed by substrate addition measured for 60 to 120 mins by HTRF assay relative to control; type: protein-complex assay; conditions: time 70-130 min
[26] = target: Tyrosine-protein kinase BTK (Homo sapiens) (UniProt Q06187); assay: Inhibition of BTK (unknown origin) at 1 uM preincubated for 10 mins followed by substrate addition measured for 60 to 120 mins by HTRF assay relative to control; conditions: time 70-130 min

With `NC(=O)c1cccc(-c2cnc3[nH]ccc3c2)c1` as the compound, how does the inhibition [1] read?
The inhibition was 23.9%.

And the Activity (HL-60 [2])?
Its Activity is 8.48%.

And the inhibition [3]?
The inhibition was 0%.

And the inhibition [4]?
Its inhibition is 0%.

And the GI50 (MOLM-13)?
Its GI50 is 1.57 µM.

And the inhibition [5]?
The inhibition was 16.2%.

And the inhibition [6]?
The inhibition was 0%.

And the inhibition [7]?
Its inhibition is 7.74%.

And the GI50 (HL-60 [8])?
Its GI50 is 1 µM.

And the Activity (HL-60 [9])?
Its Activity is 2.43%.

What about the inhibition [10] of the same compound?
The inhibition was 0%.

What about the inhibition [11] of the same compound?
The inhibition was 7.77%.

And the inhibition [12]?
Its inhibition is 2.33%.

What about the GI50 (GES1) of the same compound?
The GI50 was over 100 µM.

What about the inhibition [13] of the same compound?
The inhibition was 8.89%.

And the inhibition [14]?
The inhibition was 1.34%.

And the inhibition [15]?
Its inhibition is 4.7%.

And the inhibition [16]?
Its inhibition is 0%.

What about the Activity (HCT-116) of the same compound?
The Activity was “Dose-Dependent Effect”.

What about the inhibition [17] of the same compound?
The inhibition was 0%.

And the T [18]?
The T was 61 °C.

And the IC50 [19]?
Its IC50 is over 1 µM.

And the inhibition [20]?
Its inhibition is 6.16%.

And the clearance [21]?
Its clearance is 7.05 L/h/kg.

And the inhibition [22]?
Its inhibition is 0%.

What about the inhibition [23] of the same compound?
Its inhibition is 13.1%.

And the inhibition [24]?
The inhibition was 0%.

What about the inhibition [25] of the same compound?
Its inhibition is 0.37%.

What about the inhibition [26] of the same compound?
The inhibition was 5.27%.
